Results: US12616671B2, “Use of rigosertib to treat RNA virus infections” (Icahn School of Medicine at Mount Sinai, priority 2020, dated 2026)

How the values were obtained:
SARS-CoV-2 = experiment: Inhibition of SARS-CoV-2 replication in Vero E6 cells (viral NP immunostaining, percent infection); conditions: for IC50: read-out: IC50 of inhibition of the replication of SARS-CoV-2, MOI 0.025, compound added 2 h before infection, 48 h incubation, NP immunostaining
Vero E6 cells = conditions: uninfected VeroE6 cells, MTT assay, same compound dilutions as viral replication assay

Question: With `CCC(CC)COC(=O)[C@H](C)N[P@](=O)(OC[C@H]1O[C@@](C#N)(c2ccc3c(N)ncnn23)[C@H](O)[C@@H]1O)Oc1ccccc1` [Remdesivir] as the molecule, how does the IC50 (SARS-CoV-2) read?
Answer: 826 nM

Question: With `CCN(CCO)CCCC(C)Nc1ccnc2cc(Cl)ccc12` (stereo not drawn) [Hydroxy-Chloroquine] as the molecule, how does the IC50 (SARS-CoV-2) read?
Answer: 733 nM

Question: What does the source list for `COc1cc(OC)c(/C=C/S(=O)(=O)Cc2ccc(OC)c(NCC(=O)O)c2)c(OC)c1` [Rigosertib]?
Answer: effect on the viability of Vero E6 cells (Vero E6 cells): little or no effect; fold more effective than Remdesivir (SARS-CoV-2 replication IC50) (SARS-CoV-2; ratio of IC50 values versus Remdesivir): approximately 50 fold; IC50 (SARS-CoV-2): 16 nM

Question: For `CN1CCN(c2ccc(Nc3ncc4cc(C#N)c(=O)n(C5CCCC5)c4n3)cc2)CC1` [ON123300], which “effect on viral replication” value (SARS-CoV-2; SARS-CoV-2, negative control, data not shown) is on record?
Answer: no effect
